Assay results as given in US20160184340A1, “THE USE OF SPINOSYNS AND SPINOSYN COMPOSITIONS AS LOCAL ANESTHETICS AND AS ANTIARRHYTHMIC AGENTS” (Entarco SA, priority 2010, published 2016).
Values joined by “and” are separate entries in the source; they are usually repeats but may differ in a detail not shown here. Equal values may be shown once. Where a name gives a salt, the structure may show the parent alone. Read-outs that look alike come from different tables or passages of the source.

Columns and labels:
[1] = tested on: male Sprague-Dawley rats; test: Pain response testing, foot pinch test (Example 1, comparison with Lidocaine); assay type: in vivo; settings: for Foot Pinch Test average per animal, round 1: group average (1 = no anesthetic effect, 0 = effect); for Foot Pinch Test average per animal, round 1 / Foot Pinch Test Results Round 1: 45 minutes post dose; for Foot Pinch Test average per animal, round 1 / Foot Pinch Test average per animal, round 2 / Foot Pinch Test average per animal, round 3 / Foot Pinch Test average per animal, round 4 / Foot Pinch Test average per animal, round 5 / Foot Pinch Test average per animal, round 6: SQ 1.33 mL/kg (spinosad 12 mg/kg; Lidocaine 26.6 mg/kg); for Foot Pinch Test average per animal, round 2 / Foot Pinch Test average per animal, round 3 / Foot Pinch Test average per animal, round 4 / Foot Pinch Test average per animal, round 5 / Foot Pinch Test average per animal, round 6: group average; for Foot Pinch Test average per animal, round 2 / Foot Pinch Test Results Round 2: 70 minutes post dose; for Foot Pinch Test average per animal, round 3 / Foot Pinch Test Results Round 3: 1.5 hour post dose; for Foot Pinch Test average per animal, round 4 / Foot Pinch Test Results Round 4: 2 hours post dose; for Foot Pinch Test average per animal, round 5 / Foot Pinch Test Results Round 5: 2.5 hours post dose; for Foot Pinch Test average per animal, round 6 / Foot Pinch Test Results Round 6: 4 hours post dose; for Foot Pinch Test Results Round 1 / Foot Pinch Test Results Round 2 / Foot Pinch Test Results Round 3 / Foot Pinch Test Results Round 4 / Foot Pinch Test Results Round 5 / Foot Pinch Test Results Round 6: individual animal; for Foot Pinch Test Results Round 1: single SQ 1.33 mL/kg into left hind foot (spinosad 12 mg/kg; Lidocaine 2% solution, 26.6 mg/kg); for Foot Pinch Test Results Round 2 / Foot Pinch Test Results Round 3 / Foot Pinch Test Results Round 4 / Foot Pinch Test Results Round 5 / Foot Pinch Test Results Round 6: single SQ 1.33 mL/kg (spinosad 12 mg/kg; Lidocaine 26.6 mg/kg)
Protocol: Positive control: Lidocaine (Manufacturer: VetTek), as a Lidocaine Hydrochloride (2% solution or approx. 74 mM)
Assay: Pain response testing-foot pinch
Animals used: male Sprague-Dawley rats
Experimental set-up. The test article was administered as follows:
Approximately 1.33 mL/kg spinosad solution was administered once, subcutaneously at 12 mg/kg (9 mg/mL, 1.33 mL/kg) into the left hind foot of each rat in the treatment group (Group 3), positive control group (Group 2, Lidocaine, 1.33 mL/kg), and control vehicle group (Group 1, DMSO, 1.33 mL/kg).
Beginning approximately 45 minutes post-dose all animals were subjected to pain response testing, foot pinch test. The test was conducted on each rat, in order, and then repeated on each, 5 more times (6 rounds of testing) through 4 hours post-dose. The foot pinch test measured the rodent's tolerance of pressure on their foot. The rat was removed from its cage and the treated foot was pinched. Whether or not the rodent's foot responded to the pinch was documented. The treatment group averages were compared to positive and negative control group averages (Table 3 and FIG. 1).
Six total rounds of foot pinch-pain response testing were conducted at approximately 45, 70, 90, 120, 150, and 240 minutes post-dose. Time of dosing and pain testing results were recorded for each animal.

[2] = tested on: male Sprague-Dawley rats; test: Foot pinch test, duration of action and reversible effects (Example 2); assay type: in vivo; settings: for Foot Pinch Test average per animal, round 1 / Foot Pinch Test average per animal, round 2 / Foot Pinch Test average per animal, round 3 / Foot Pinch Test average per animal, round 4 / Foot Pinch Test average per animal, round 5: group average; for Foot Pinch Test average per animal, round 1 / Foot Pinch Test Results Round 1: 1 hour post dose; for Foot Pinch Test average per animal, round 2 / Foot Pinch Test Results Round 2: 4 hours post dose; for Foot Pinch Test average per animal, round 3 / Foot Pinch Test Results Round 3: 6 hours post dose; for Foot Pinch Test average per animal, round 4 / Foot Pinch Test Results Round 4: 8 hours post dose; for Foot Pinch Test average per animal, round 5 / Foot Pinch Test Results Round 5: 24 hours post dose; for Foot Pinch Test Results Round 2 / Foot Pinch Test Results Round 3 / Foot Pinch Test Results Round 4 / Foot Pinch Test Results Round 5 / Foot Pinch Test Results Round 1: individual animal
Protocol: This test was conducted to establish spinosad's reversible local anesthetic effects and confirm the prolonged effect. The same assay as in example 1 was used.
Test article: spinosad in DMSO 9 mg/ml, administered in two doses; high dose 9 mg/kg and low dose 4.5 mg/kg.
The treatment group averages were compared to positive and negative control group averages (Table 6 and FIG. 2).

[3] = target: cloned hERG potassium channels (Homo sapiens, UniProt Q12809)
Protocol: Rational for Ion channel selection: Inhibition of hERG (IKr) channels closely predicts the cardiac action potential prolongation. […] This stable expressed hERG cell line is widely used for hERG testing. The percentage inhibition of spinosad on human-ERG currents were evaluated from the gold standard manual patch clamp studies.
Test sample: spinosad (Supplier:Sigma-Aldrich/Fluka), in DMSO 9 mg/ml (0.8% w/w or approx. 12 mM)
Positive control: Terfenadine (Supplier: Sigma-Aldrich), in DMSO at a concentration of 1 mM.
All the final solutions contained no more than 0.3% DMSO.
Assay: Electrophysiology recording: Micropipette was pulled from borosilicate glass with the pipette tip resistance between 3-5 MΩ. For each experiment, a single dish of cells is removed from the incubator, washed twice with room temperature ECS and then placed on the microscope stage. A commercial patch clamp amplifier was used for the whole cell recordings.
Voltage protocol and current recording: The tail currents were evoked at room temperature once every 30 s by a 3 s −50 mV repolarizing pulse following a 2 s+50 mV depolarizing pulse with a hold voltage of −80 mV. A 50 ms depolarized pulse to −50 mV at the beginning of the voltage protocol served as a baseline for calculating the amplitude of the peak tail current. Only stable cells with recording parameters above threshold were allowed to enter the drug application procedure. The hERG currents were allowed to stabilize over a 3 minutes period in the presence of a vehicle alone prior to the application of spinosad. The cells were kept in the test solution until the peak tail current was stable (<5% change) for about 5 sweeps or for a maximum of 6 min, whichever came first.
Acceptance criteria for measurements: 1. Whole-cell membrane resistance (Rm) was greater than 1000 MΩ throughout the experiment. 2. Initial current was greater than 300 pA. 3. Series resistance value following establishment of whole-cell mode was less than 12 MΩ. 4. The leak current that the cell began with or developed over time was less than 10% of the ionic current magnitude (up to a maximum of 80 pA).

[4] = no value or species printed; cited from earlier work

Sequence of cloned hERG potassium channels (Q12809 whole entry): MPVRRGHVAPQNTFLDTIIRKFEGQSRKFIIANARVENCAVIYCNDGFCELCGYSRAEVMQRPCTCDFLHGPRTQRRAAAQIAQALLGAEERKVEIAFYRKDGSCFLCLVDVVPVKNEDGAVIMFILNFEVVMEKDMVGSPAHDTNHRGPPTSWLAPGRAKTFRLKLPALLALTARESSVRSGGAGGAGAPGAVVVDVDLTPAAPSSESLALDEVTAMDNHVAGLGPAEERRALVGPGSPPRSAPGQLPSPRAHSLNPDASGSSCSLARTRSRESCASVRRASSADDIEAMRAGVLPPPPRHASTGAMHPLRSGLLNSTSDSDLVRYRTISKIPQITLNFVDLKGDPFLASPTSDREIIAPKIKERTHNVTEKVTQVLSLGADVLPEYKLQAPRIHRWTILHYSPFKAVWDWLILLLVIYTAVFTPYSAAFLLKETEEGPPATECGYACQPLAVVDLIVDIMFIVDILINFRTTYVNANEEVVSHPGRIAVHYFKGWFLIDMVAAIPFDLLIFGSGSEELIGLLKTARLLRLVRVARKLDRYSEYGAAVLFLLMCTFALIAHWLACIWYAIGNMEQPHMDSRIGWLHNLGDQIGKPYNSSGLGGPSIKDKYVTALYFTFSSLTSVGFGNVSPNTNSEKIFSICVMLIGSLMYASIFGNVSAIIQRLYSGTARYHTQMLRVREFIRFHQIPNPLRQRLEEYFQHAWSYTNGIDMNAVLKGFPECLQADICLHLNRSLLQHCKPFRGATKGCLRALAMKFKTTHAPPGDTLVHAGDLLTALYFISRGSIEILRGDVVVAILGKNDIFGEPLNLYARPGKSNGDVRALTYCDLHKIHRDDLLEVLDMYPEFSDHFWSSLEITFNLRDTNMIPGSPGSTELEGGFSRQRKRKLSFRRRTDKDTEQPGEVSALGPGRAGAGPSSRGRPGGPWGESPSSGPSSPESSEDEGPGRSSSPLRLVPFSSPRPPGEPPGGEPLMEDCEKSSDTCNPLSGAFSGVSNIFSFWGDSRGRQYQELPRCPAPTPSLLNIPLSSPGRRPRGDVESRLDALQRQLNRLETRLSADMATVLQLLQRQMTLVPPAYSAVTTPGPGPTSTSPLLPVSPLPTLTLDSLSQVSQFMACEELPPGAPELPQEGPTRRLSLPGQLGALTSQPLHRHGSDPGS

CCN(CC)CC(=O)Nc1c(C)cccc1C [Lidocaine, Lidocaine Hydrochloride]
Time by which localized anesthetic effect resolved ([1]; Lidocaine group, 1.33 mL/kg SQ, post-dose): ~70 min | Foot Pinch Test average per animal, round 1 [1]: 0.00 | Foot Pinch Test average per animal, round 2 [1]: 0.67 | Foot Pinch Test average per animal, round 3 [1]: 1.00 | Foot Pinch Test average per animal, round 4 [1]: 1.00 | Foot Pinch Test average per animal, round 5 [1]: 1.00 | Foot Pinch Test average per animal, round 6 [1]: 1.00 | Foot Pinch Test Results Round 1 [1]: 0.00 | Foot Pinch Test Results Round 2 ([1]; Hydrochloride): 1.00 (4×) and 0.00 (2×) | Foot Pinch Test Results Round 3 [1]: 1.00 | Foot Pinch Test Results Round 4 [1]: 1.00 | Foot Pinch Test Results Round 5 [1]: 1.00 | Foot Pinch Test Results Round 6 [1]: 1.00

spinosad
Foot Pinch Test average per animal, round 1 [1]: 0.00 | Foot Pinch Test average per animal, round 2 [1]: 0.00 | Foot Pinch Test average per animal, round 3 [1]: 0.17 | Foot Pinch Test average per animal, round 4 [1]: 0.17 | Foot Pinch Test average per animal, round 5 [1]: 0.33 | Foot Pinch Test average per animal, round 6 [1]: 0.50 | Foot Pinch Test Results Round 1 [1]: 0.00 | Foot Pinch Test Results Round 2 [1]: 0.00 | Foot Pinch Test Results Round 3 [1]: 0.00 (5×) and 1.00 | Foot Pinch Test Results Round 4 [1]: 0.00 (5×) and 1.00 | Foot Pinch Test Results Round 5 [1]: 0.00 (4×) and 1.00 (2×) | Foot Pinch Test Results Round 6 [1]: 0.00 (3×) and 1.00 (3×) | Duration of local anesthetic effect (remained unresolved) ([1]; single SQ dose 12 mg/kg, study duration 4 hours): ≥ 4 h | Tolerability ([1]; single subcutaneous dose into the footpad at 12 mg/kg): well tolerated | Foot Pinch Test average per animal, round 1 ([2]; 4.5 mg/kg SQ): 0.50 | Foot Pinch Test average per animal, round 2 ([2]; 4.5 mg/kg SQ): 0.83 | Foot Pinch Test average per animal, round 3 ([2]; 4.5 mg/kg SQ): 1.00 | Foot Pinch Test average per animal, round 4 ([2]; 4.5 mg/kg SQ): 1.00 | Foot Pinch Test average per animal, round 5 ([2]; 4.5 mg/kg SQ): 1.00 | Foot Pinch Test average per animal, round 1 ([2]; 9.0 mg/kg SQ): 0.00 | Foot Pinch Test average per animal, round 2 ([2]; 9.0 mg/kg SQ): 0.17 | Foot Pinch Test average per animal, round 3 ([2]; 9.0 mg/kg SQ): 0.50 | Foot Pinch Test average per animal, round 4 ([2]; 9.0 mg/kg SQ): 0.50 | Foot Pinch Test average per animal, round 5 ([2]; 9.0 mg/kg SQ): 1.00 | Foot Pinch Test Results Round 2 ([2]; 4.5 mg/kg SQ, 4.5 mg/kg): 1.00 (5×) and 0.00 | Foot Pinch Test Results Round 3 ([2]; 4.5 mg/kg SQ): 1.00 | Foot Pinch Test Results Round 4 ([2]; 4.5 mg/kg SQ): 1.00 | Foot Pinch Test Results Round 5 ([2]; 4.5 mg/kg SQ): 1.00 | Foot Pinch Test Results Round 2 ([2]; 9.0 mg/kg SQ, 9 mg/kg): 0.00 (5×) and 1.00 | Foot Pinch Test Results Round 3 ([2]; 9.0 mg/kg SQ, 9 mg/kg): 0.00 (3×) and 1.00 (3×) | Foot Pinch Test Results Round 4 ([2]; 9.0 mg/kg SQ, 9 mg/kg): 0.00 (3×) and 1.00 (3×) | Foot Pinch Test Results Round 5 ([2]; 9.0 mg/kg SQ): 1.00 | Foot Pinch Test Results Round 1 ([2]; spinosad high dose 9.0 mg/kg SQ foot pad): 0.00 | Foot Pinch Test Results Round 1 ([2]; spinosad low dose 4.5 mg/kg SQ foot pad, 4.5 mg/kg): 1.00 (3×) and 0.00 (3×) | Duration of local anesthetic effect ([2]; single SQ dose 4.5 mg/kg): lasted during the first hour of study only | Duration of local anesthetic effect (remained unresolved) ([2]; single SQ dose 9 mg/kg): 6 to 8 h | Reversibility of local anesthetic effect ([2]; single SQ dose 9 mg/kg): fully reversible at 24 hours | Tolerability ([2]; single subcutaneous dose into the footpad at 9 mg/kg): well tolerated | % Block Cell #2 ([3]; 1.35 μM): 3.5% | % Block Cell #3 ([3]; 1.35 μM): 0.6% | Average Inhibition (%) of hERG currents ([3]; 1.35 μM): 7.2±8.9% | % Block Cell #1 ([3]; 1.35 μM, hERG tail current, room temperature): 17.3% | % Block Cell #1 ([3]; 4.50 μM): 26.9% | % Block Cell #2 ([3]; 4.50 μM): 19.2% | % Block Cell #3 ([3]; 4.50 μM): 19.4% | Average Inhibition (%) of hERG currents ([3]; 4.50 μM): 21.8±4.4% | % Block Cell #1 ([3]; 13.50 μM): 30.3% | % Block Cell #2 ([3]; 13.50 μM): 48.4% | % Block Cell #3 ([3]; 13.50 μM): 47.7% | % Block Cell #4 ([3]; 13.50 μM): 40.2% | Average Inhibition (%) of hERG currents ([3]; 13.50 μM): 41.7±8.4% | % Block Cell #2 ([3]; 36.00 μM): 77.5% | % Block Cell #3 ([3]; 36.00 μM): 84.1% | % Block Cell #4 ([3]; 36.00 μM): 73.2% | Average Inhibition (%) of hERG currents ([3]; 36.00 μM): 78.3±5.5% | Reversibility of blocking on hERG current ([3]; saline wash): reversible after one minute of saline wash | Concentration dependence of hERG current inhibition ([3]; whole cell recordings, HEK293-hERG stable cell line): inhibited hERG currents in a concentration-dependent manner | LD50 relative to lidocaine [4]: much higher LD50 than lidocaine
